Laboratory results: patent publication US8114909B2, “Treating or preventing restless legs syndrome using prodrugs of GABA analogs” (XenoPort, Inc., priority 2003, dated 2012)

Experiment: drug release from the sustained release oral osmotic dosage form in artificial gastric fluid
Format: physicochemical
Settings: release of prodrug from the osmotic sustained release dosage form of Example 1 (700 mg drug composition, one 10 mil passageway)
Method: The bilayered arrangements next are coated with a semipermeable wall. The wall-forming composition comprises 100% cellulose acetate having a ˜40% acetyl content. The polymer is dissolved in 100% acetone to make a 4% solid solution. The wall forming composition is sprayed at 26 grams/min onto and around the bilayer cores in a tablet coater until a dry weight of 90 mg/core is achieved. Next, one 10 mil (0.254 mm) exit passageway is mechanically drilled through the semipermeable wall to connect the drug layer with the exterior of the dosage system. The residual solvent is removed by first drying for 120 hours at 50° C. and 30% relative humidity, then the systems are dried for 2 hours at 50° C. to remove excess moisture. The drug dosage form produced by this process provides: ˜90 wt % 1-{[(α-isobutanoyloxyethoxy)carbonyl]aminomethyl}-1-cyclohexane acetic acid, 4 wt % hydroxypropylmethylcellulose of 11,200 molecular weight, 4 wt % polyethylene oxide of 5,000,000 molecular weight and 1 wt % magnesium stearate in the drug layer. The push composition comprises 63.7 wt % polyethylene oxide of 7,500,000 molecular weight, 30 wt % sodium chloride, 5 wt % hydroxypropylmethylcellulose of 11,200 molecular weight, 1 wt % red ferric oxide, 0.25 wt % magnesium stearate, and 0.075 wt % of butylated hydroxytoluene. The wall comprises 100 wt % cellulose acetate comprising a ˜40% acetyl content. […]

`CC(OC(=O)NCC1(CC(=O)O)CCCCC1)OC(=O)C(C)C` (stereo not drawn) [1-{[(α-isobutanoyloxyethoxy)carbonyl]aminomethyl}-1-cyclohexane acetic acid] gave a release rate greater than 20 mg/h.
